# Values quoted from earlier work in PubChem BioAssay AID1259409 (Chemical Carcinogenesis Research Information System (CCRIS), 2018).
# Test system: rodent chemically induced tumor inhibition, incidence and multiplicity
# Experiment: CCRIS tumor inhibitor studies
smiles,measurement,setting,value
C[N+](C)(C)CCO,"tumour outcome (control, treated, inhibition, significance)","Carcinogen: 3'-METHYL-4-DIMETHYLAMINOAZOBENZENE, 55-80-1, Dose [Inhibitor]: 0.1% IN DIET DAILY FOR 4 WK STARTING AFTER 4 WK OF CARCINOGEN TREATMENT (STUDY DURATION: 20 WK), Route [Inhibitor]: ORAL, Species: RAT, Target Tissue: Type of Lesion: LIVER: TUMOR, Dose [Carcinogen]: 0.064% IN DIET DAILY FOR 8 WK 4 WK BEFORE AND ANOTHER 4 WK AFTER AGENT TREATMENT, Promoter: NONE USED","7/9 (78%), 9/12 (75%), 4%, not calculated"
same,"tumour outcome (control, treated, inhibition, significance)","Carcinogen: DIETHYLNITROSAMINE, 55-18-5, Dose [Inhibitor]: 0, 1% IN DIET BEGINNING 1 WK POST CARCINOGEN DOSE (STUDY DURATION: 52 WK), Route [Inhibitor]: ORAL, Species: MOUSE, Strain/Sex: C3H/MALE, Target Tissue: Type of Lesion: LIVER: ADENOMA, Dose [Carcinogen]: 150 MG/KG ONCE, Promoter: PHENOBARBITAL, 50-06-6","16%, 11%, 31%, not calculated"
same,"tumour outcome (control, treated, inhibition, significance)","Carcinogen: DIETHYLNITROSAMINE, 55-18-5, Dose [Inhibitor]: 0, 1% IN DIET BEGINNING 1 WK POST CARCINOGEN DOSE (STUDY DURATION: 52 WK), Route [Inhibitor]: ORAL, Species: MOUSE, Strain/Sex: C3H/MALE, Target Tissue: Type of Lesion: LIVER: CARCINOMA, Dose [Carcinogen]: 150 MG/KG ONCE, Promoter: PHENOBARBITAL, 50-06-6","74%, 72%, 3%, not calculated"
same,"tumour outcome (control, treated, inhibition, significance)","Carcinogen: DIETHYLNITROSAMINE, 55-18-5, Dose [Inhibitor]: 0, 1% IN DIET BEGINNING 1 WK POST CARCINOGEN DOSE (STUDY DURATION: 52 WK), Route [Inhibitor]: ORAL, Species: MOUSE, Strain/Sex: C3H/MALE, Target Tissue: Type of Lesion: LUNG: ADENOMA OR ADENOCARCINOMA, Dose [Carcinogen]: 150 MG/KG ONCE, Promoter: NONE USED","6/14 (43%), 13/24 (54%), -26%, not calculated"
same,"tumour outcome (control, treated, inhibition, significance)","Carcinogen: DIETHYLNITROSAMINE, 55-18-5, Dose [Inhibitor]: 0, 1% IN DIET BEGINNING 1 WK POST CARCINOGEN DOSE (STUDY DURATION: 52 WK), Route [Inhibitor]: ORAL, Species: MOUSE, Strain/Sex: C3H/MALE, Target Tissue: Type of Lesion: LUNG: ADENOMA OR ADENOCARCINOMA, Dose [Carcinogen]: 150 MG/KG ONCE, Promoter: PHENOBARBITAL, 50-06-6","7/19 (37%), 4/18 (22%), 41%, not calculated"
same,"tumour outcome (control, treated, inhibition, significance)","Carcinogen: DIETHYLNITROSAMINE, 55-18-5, Dose [Inhibitor]: 0, 1% IN DIET BEGINNING 1 WK PRIOR TO POST CARCINOGEN DOSE (STUDY DURATION: 52 WK), Route [Inhibitor]: ORAL, Species: MOUSE, Strain/Sex: C3H/MALE, Target Tissue: Type of Lesion: LIVER: ADENOMA, Dose [Carcinogen]: 150 MG/KG ONCE, Promoter: NONE USED","14%, 21%, -50%, not calculated"
same,"tumour outcome (control, treated, inhibition, significance)","Carcinogen: ETHIONINE, 13073-35-3, Dose [Inhibitor]: 2.1 MMOL/100 G DIET DAILY FOR 8 MO ADMINISTERED SIMULTANEOUSLY WITH CARCINOGEN FOLLOWED BY 2 MO ON BASAL DIET (STUDY DUR, Route [Inhibitor]: ORAL, Species: RAT, Strain/Sex: WISTAR/MALE, FEMALE, Target Tissue: Type of Lesion: LIVER: CARCINOMA, Dose [Carcinogen]: 0.25% OF DIET DAILY FOR 8 MO, Promoter: NONE USED","9/10 (90%), 5/9 (56%), 38%, not calculated"
same,"tumour outcome (control, treated, inhibition, significance)","Carcinogen: ETHIONINE, 13073-35-3, Dose [Inhibitor]: 4.2 MMOL/100 G DIET DAILY FOR 8 MO ADMINISTERED SIMULTANEOUSLY WITH CARCINOGEN FOLLOWED BY 4 MO ON BASAL DIET (STUDY DUR, Route [Inhibitor]: ORAL, Species: RAT, Strain/Sex: WISTAR/MALE, Target Tissue: Type of Lesion: LIVER: CARCINOMA, Dose [Carcinogen]: 0.25% OF DIET DAILY FOR 8 MO, Promoter: NONE USED","8/8 (100%), 6/10 (60%), 40%, not calculated"
same,"tumour outcome (control, treated, inhibition, significance)","Carcinogen: ETHIONINE, 13073-35-3, Dose [Inhibitor]: 5.7 MMOL/100 G DIET DAILY FOR 8 MO ADMINISTERED SIMULTANEOUSLY WITH CARCINOGEN FOLLOWED BY 4 MO ON BASAL DIET (STUDY DUR, Route [Inhibitor]: ORAL, Species: RAT, Strain/Sex: WISTAR/MALE, Target Tissue: Type of Lesion: LIVER: CARCINOMA, Dose [Carcinogen]: 0.25% OF DIET DAILY FOR 8 MO, Promoter: NONE USED","8/8 (100%), 7/10 (70%), 30%, not calculated"
Cc1occc(=O)c1O,"tumour outcome (control, treated, inhibition, significance)","Carcinogen: BENZO[A]PYRENE, 50-32-8, Dose [Inhibitor]: 0.034 MMOL/G IN DIET BEGINNING 1 WK PRIOR TO CARCINOGEN DOSE AND CONTINUING FOR 3 D POST LAST CARCINOGEN DOSE (STUDY DUR, Route [Inhibitor]: ORAL, Species: MOUSE, Strain/Sex: ICR/FEMALE, Target Tissue: Type of Lesion: FORESTOMACH: TUMOR, Dose [Carcinogen]: 1 MG IN 0.2 ML CORN OIL 2/WK FOR 4 WK, Promoter: NONE USED","94%, 100%, -6%, not significant"
CCCCCCCc1ccco1,"tumour outcome (control, treated, inhibition, significance)","Carcinogen: BENZO[A]PYRENE, 50-32-8, Dose [Inhibitor]: 0, 25 UMOL IN 0.2 ML COTTONSEED OIL 3/WK FOR 4 WK BEGINNING 1 DAY PRIOR TO FIRST CARCINOGEN DOSE AND TERMINATING 1 DAY A, Route [Inhibitor]: GAVAGE, Species: MOUSE, Strain/Sex: STRAIN-A/FEMALE, Target Tissue: Type of Lesion: FORESTOMACH: TUMOR, Dose [Carcinogen]: 1 MG 2/WK FOR 4 WK, Promoter: NONE USED","14/17 (82%), 10/15 (66%), 20%, not significant"
same,"tumour outcome (control, treated, inhibition, significance)","Carcinogen: BENZO[A]PYRENE, 50-32-8, Dose [Inhibitor]: 0, 25 UMOL IN 0.2 ML COTTONSEED OIL 3/WK FOR 4 WK BEGINNING 1 DAY PRIOR TO FIRST CARCINOGEN DOSE AND TERMINATING 1 DAY A, Route [Inhibitor]: GAVAGE, Species: MOUSE, Strain/Sex: STRAIN-A/FEMALE, Target Tissue: Type of Lesion: LUNG: TUMOR, Dose [Carcinogen]: 1 MG 2/WK FOR 4 WK, Promoter: NONE USED","17/17 (100%), 15/15 (100%), 0%, not significant"
same,"tumour outcome (control, treated, inhibition, significance)","Carcinogen: BENZO[A]PYRENE, 50-32-8, Dose [Inhibitor]: 0, 50 UMOL IN 0.2 ML COTTONSEED OIL 3/WK FOR 4 WK BEGINNING 1 DAY PRIOR TO FIRST CARCINOGEN DOSE AND TERMINATING 1 DAY A, Route [Inhibitor]: GAVAGE, Species: MOUSE, Strain/Sex: STRAIN-A/FEMALE, Target Tissue: Type of Lesion: FORESTOMACH: TUMOR, Dose [Carcinogen]: 1 MG 2/WK FOR 4 WK, Promoter: NONE USED","14/17 (82%), 9/12 (75%), 8%, not significant"
same,"tumour outcome (control, treated, inhibition, significance)","Carcinogen: BENZO[A]PYRENE, 50-32-8, Dose [Inhibitor]: 0, 50 UMOL IN 0.2 ML COTTONSEED OIL 3/WK FOR 4 WK BEGINNING 1 DAY PRIOR TO FIRST CARCINOGEN DOSE AND TERMINATING 1 DAY A, Route [Inhibitor]: GAVAGE, Species: MOUSE, Strain/Sex: STRAIN-A/FEMALE, Target Tissue: Type of Lesion: LUNG: TUMOR, Dose [Carcinogen]: 1 MG 2/WK FOR 4 WK, Promoter: NONE USED","17/17 (100%), 12/12 (100%), 0%, not significant"
COc1cc2c3cc1Oc1c(OC)c(OC)cc4c1[C@@H](Cc1ccc(O)c(c1)Oc1ccc(cc1)C[C@@H]3N(C)CC2)N(C)CC4,"tumour outcome (control, treated, inhibition, significance)","Carcinogen: 7,12-DIMETHYLBENZ[A]ANTHRACENE, 57-97-6, Dose [Inhibitor]: 0, 2 UMOL 2/WK 30 MIN PRIOR TO EACH PROMOTER DOSE BEGINNING 1 WK POST CARCINOGEN DOSE (STUDY DURATION: 18 WK), Route [Inhibitor]: DERMAL, Species: MOUSE, Strain/Sex: ICR/FEMALE, Target Tissue: Type of Lesion: SKIN: PAPILLOMA, Dose [Carcinogen]: 50 UG ONCE, Promoter: 12-O-TETRADECANOYLPHORBOL-13-ACETATE, 16561-29-8","100%, 20%, 80%, not calculated"
